“Also recorded” adds a separate entry of the source. Ends that are not written are not given here.
Assays:
[1] = target: human γ-TuRC (centrosome MTOC of human breast cancer cells) (human) (UniProt P23258); experiment: cell-based or functional assay
human γ-TuRC = target: T1, human γ-TuRC (Homo sapiens, UniProt P23258+Q9BSJ2); experiment: In vitro γ-TuRC microtubule nucleation assay; type: biochemical; details: whole-cell extract from human breast cancer cells; final peptide concentration 60 nM
T1 construct: All other samples use whole-cell extract from human breast cancer cells; endogenous in cells; host or cells: human breast cancer cells (whole-cell extract)
Description: In vitro microtubule nucleation assays were performed in a total volume of 5 μL. That is, 3 μL for the sample and 2 μL of tubulin at a 1:5 ratio of Rhodamine:unlabeled tubulin (Cytoskeleton, Inc.). Total tubulin concentration was 3.75 μg/μL in 2.5× tubulin working buffer (2.5×BRB80: 200 mM PIPES, 2.5 mM MgCl2, 2.5 mM EGTA at pH 6.8 and 2.5 mM GTP). For whole cell extract nucleation analysis with peptide, 2 μL of whole cell extract was added with 1 μL of peptide at 300 nM for a final peptide concentration of 60 nM. This 3 μL combination was added first followed by tubulin working buffer. For samples with no peptide, the 5 μL final volume was comprised of 3 μL RIPA buffer and 2 μL of whole cell extract. The 5 μL reaction was combined on ice, quickly spun and returned to ice before incubating in a 37° C. water bath for 4 minutes. Sample incubation was staggered at 20 s intervals to allow for pipetting. After 4 minutes, 50 μL of 1% glutaraldehyde fixing solution was added and tubes were incubated at room temperature for 3 minutes. Samples were completed by addition of 1 mL 1×BRB80, inverting multiple times to mix. […] Images of multiple fields were collected and the average microtubule number per field was determined.

MDA-MB-231 cells = experiment: Mitotic arrest after live cell peptide transfection (Chariot) of MDA-MB-231 cells; type: cell-based, human
Description: (§1) MCF-7 and MDA-MB-231 (ATCC) cells were maintained in 25 cm^2 tissue culture treated Corning flasks (Sigma-Aldrich) in DMEM complete medium with Glutamax-1 and supplemented with 10% fetal bovine serum. MCF-7 DMEM complete medium was additionally supplemented with 0.01 mg/mL bovine insulin (Sigma-Aldrich). Flasks were maintained at 37° C. in 5% CO2, 95% air, and cells were passaged every 5-7 days using 1 mL TrypLE (Life Technologies).
(§2) For live cell peptide transfection we used the Chariot system (Active Motif) according to the manufacturer's instructions. Cells were seeded into 35 mm tissue culture-treated dishes containing coverslips and grown in complete medium to ˜60% confluency. 1 μg of Kinesin-14 Tail peptide PγTR (GenScript) was diluted in 100 μL 1×PBS on ice. 6 μL of 1/10 PBS-diluted Chariot reagent was further diluted into 100 μL sterile water on ice in a separate tube. Diluted peptide and diluted Chariot were combined and incubated at room temperature for 30 minutes to allow the Chariot-peptide complex to form. Following incubation, media was aspirated from cells, which were then washed once in 1×PBS. The entire 200 μL volume was added to cells in 400 μL serum-free media and gently rocked to ensure even delivery. Plates were returned to 37° C. for 1 hr. Next, DMEM complete growth medium was added to 2 mL without removing the peptide delivery solution (108 μM peptide in 2 mL). Cells were further incubated at 37° C. overnight and fixed after 24 hours.
Human cells were fixed on glass coverslips in −20° C. methanol for 10 minutes, washed with 1×PBS and permeabilized in 0.5% Triton X-100 for 20 minutes. Following further washes, cells were blocked for 30 minutes in 1% bovine serum albumin/knock out serum replacement (BSA/KOSR). […]
(§3) For statistical analysis of phenotypes, n values were chosen as number of cells per strain needed to ensure adequate power to detect significant outcomes. […] For cell cycle arrest by 1 μg transfection of PγTR, 12 fields at 200× were counted. […]

[2] = tested on: human MCF-7 breast cancer cells; experiment: Mitotic arrest after live cell peptide transfection (Chariot) of MCF-7 cells; type: cell-based
Description: as §1, §2
Human cells were fixed on glass coverslips in −20° C. methanol for 10 minutes, washed with 1×PBS and permeabilized in 0.5% Triton X-100 for 20 minutes. Following further washes, cells were blocked for 30 minutes in 1% bovine serum albumin/knock out serum replacement (BSA/KOSR). For peptide localization to centrosomes, 1 μg/mL of peptide was applied after blocking and before primary antibody application. Antibodies used were primary mouse anti-γ-tubulin monoclonal (1:5,000; Sigma-Aldrich cat. T5326) or primary mouse anti-α-tubulin monoclonal DM1A (1:1,000; Santa Cruz Biotech cat. sc-32293), primary His-tag polyclonal antibody (1:1,000; Cell Signaling cat. 2365), secondary goat anti-mouse Alexa Fluor 488 IgG (1:1,000; Life Technologies cat. A-11001) and secondary goat anti-rabbit Texas Red (1:1,000; Life Technologies cat. T-6391). Antibodies were diluted in 1% BSA/KOSR antibody dilution buffer. […]
as §3

T1 sequence (P23258 whole entry): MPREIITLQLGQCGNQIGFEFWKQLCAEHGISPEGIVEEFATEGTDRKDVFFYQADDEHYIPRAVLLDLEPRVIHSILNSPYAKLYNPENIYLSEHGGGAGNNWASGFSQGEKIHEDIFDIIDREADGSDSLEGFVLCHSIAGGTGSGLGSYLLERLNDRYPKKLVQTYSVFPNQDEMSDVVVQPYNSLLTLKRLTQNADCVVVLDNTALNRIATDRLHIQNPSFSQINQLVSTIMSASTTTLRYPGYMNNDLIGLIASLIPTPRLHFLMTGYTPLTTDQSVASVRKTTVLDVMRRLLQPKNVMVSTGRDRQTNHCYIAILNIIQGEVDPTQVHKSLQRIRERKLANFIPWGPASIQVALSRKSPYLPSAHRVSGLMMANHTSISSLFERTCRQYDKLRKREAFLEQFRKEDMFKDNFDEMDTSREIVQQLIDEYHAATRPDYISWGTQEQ
T1 sequence (Q9BSJ2 whole entry): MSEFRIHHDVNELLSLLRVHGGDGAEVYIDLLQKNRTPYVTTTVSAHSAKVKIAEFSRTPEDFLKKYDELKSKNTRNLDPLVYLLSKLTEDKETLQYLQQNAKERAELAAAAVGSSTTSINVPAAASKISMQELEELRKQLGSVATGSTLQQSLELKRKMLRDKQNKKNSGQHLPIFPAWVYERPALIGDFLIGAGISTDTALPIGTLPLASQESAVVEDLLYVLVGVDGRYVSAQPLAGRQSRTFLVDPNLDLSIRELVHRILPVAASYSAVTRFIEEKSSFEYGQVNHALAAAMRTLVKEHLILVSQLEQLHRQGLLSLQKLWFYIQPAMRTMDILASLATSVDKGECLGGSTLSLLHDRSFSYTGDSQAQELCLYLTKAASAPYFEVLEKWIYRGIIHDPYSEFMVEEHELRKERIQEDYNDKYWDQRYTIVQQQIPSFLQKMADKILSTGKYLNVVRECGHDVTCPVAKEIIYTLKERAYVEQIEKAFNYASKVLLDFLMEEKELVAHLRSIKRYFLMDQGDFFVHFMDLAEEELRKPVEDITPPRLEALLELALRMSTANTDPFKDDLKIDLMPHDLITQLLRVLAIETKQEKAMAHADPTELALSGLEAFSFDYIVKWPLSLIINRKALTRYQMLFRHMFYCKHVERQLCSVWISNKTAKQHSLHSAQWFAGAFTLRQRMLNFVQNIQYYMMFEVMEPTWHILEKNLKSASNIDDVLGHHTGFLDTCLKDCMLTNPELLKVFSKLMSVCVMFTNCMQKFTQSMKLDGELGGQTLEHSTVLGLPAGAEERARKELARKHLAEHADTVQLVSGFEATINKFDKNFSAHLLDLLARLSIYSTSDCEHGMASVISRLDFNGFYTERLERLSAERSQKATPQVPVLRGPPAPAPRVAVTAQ
Sequence of human γ-TuRC (centrosome MTOC of human breast cancer cells) (human) (P23258 whole entry, chain 1 of 2): as the sequence (P23258 whole entry) above
Sequence of human γ-TuRC (centrosome MTOC of human breast cancer cells) (human) (Q9BSJ2 whole entry, chain 2 of 2, further chain): as the sequence (Q9BSJ2 whole entry) above

Row | cells arrested in mitosis 24 hours after transfection, MCF-7 [1] [%] | cells arrested in mitosis 24 hours after transfection, MDA-MB-231 [1] [%] | Substance | block of γ-TuRC microtubule nucleation (in words) (human γ-TuRC) | mitotic arrest (in words) (MDA-MB-231 cells; MDA-MB-231 (high aggressiveness), live cell transfection) | share of cells receiving peptide that were arrested in mitosis (MDA-MB-231 cells; MDA-MB-231, 24 h, value in brackets in FIG. 13G legend) [%] | cells arrested in mitosis (MDA-MB-231 cells; MDA-MB-231, 24 h after transfection with 1 μg peptide, arrested peptide-positive cells as percentage of entire population, 12 fields at 200×) [%] | mitotic arrest (in words) ([2]; MCF-7 (low aggressiveness), live cell transfection) | share of cells receiving peptide that were arrested in mitosis ([2]; MCF-7, 24 h, value in brackets in FIG. 13G legend) [%] | cells arrested in mitosis ([2]; MCF-7, 24 h after transfection with 1 μg peptide, arrested peptide-positive cells as percentage of entire population, 12 fields at 200×) [%] | spindle formation by α-tubulin staining ([2]; MCF-7 cells arrested by peptide, live cell transfection)
1 | 39 | 22.6 | 6-His tagged Kinesin-14 Tail peptide PγTR (γ-TuRC targeting and regulatory peptide) | – | – | – | – | – | – | – | –
2 | – | – | YSKFKESAAPQLKDLIGSGAEKDHEYSLQLQ (also: 6-His tag, end not given here) [PγTR, Kinesin-14 Pkl1 Tail peptide, γ-TuRC targeting and regulatory; used 6-His tagged] | potent inhibitor of nucleation; also recorded: blocks the γ-TuRC MTOC nucleation | can mitotically arrest both the MCF-7 low and MDA-MB-231 high aggressive cell lines with similar efficiency | 82 | 22.6 | can mitotically arrest both the MCF-7 low and MDA-MB-231 high aggressive cell lines with similar efficiency | 90 | 39 | No spindle formation

Source: patent publication US9567380B1, “Microtubule organizing center (MTOC)-inactivating peptides” (THE RESEARCH FOUNDATION FOR THE STATE UNIVERSITY OF NEW YORK, priority 2015, dated 2017)
